From article PMC4669722, “Antitumour potential of BPT: a dual inhibitor of cdk4 and tubulin polymerization” (Cell Death & Disease, 2015)

Assays:
[1] = system: BNL CL2 (mouse embryonic normal hepatic cells); test: Flow cytometric cell cycle analysis, BNL CL2; format: cell-based; settings: BNL CL2, 48 h, IC50 and IC70 concentrations
Description: (§1) The untreated (control) and treated (with test compounds) cells were harvested by trypsinization, washed once with PBS and then fixed in 70% chilled (−20 °C) ethanol for minimum 1 h. After the fixation step, cells were centrifuged for 5 min at 3000 × g at room temperature, and the pellet was suspended in PBS containing 50 μg/ml propidium iodide (Sigma-Aldrich, Dorset, UK; cat. no. P-4170) and 0.5 mg/ml DNase-free ribonuclease (Sigma-Aldrich; cat. no. R-5503). The cells were stained for 1 h in the dark at 4 °C. Cell cycle analysis was performed on the Beckman Coulter (Epics Altra) fluorescence-activated cell sorter (Beckman Coulter UK Ltd, Buckinghamshire, UK). To gate all the events that represent single cells, and not cell doublets or cell clumps, the following analyses were performed on the samples. Cytograms of propidium iodide fluorescence peak signal versus integrated fluorescence or the linear signal were plotted. All data points on the straight line were isolated in a single gate and the gated data was further used for plotting a histogram that represents a complete cell cycle. The total number of events was not allowed to exceed 200 events per s. Data acquisition was stopped after a minimum of 10 000 events had been collected.

[2] = system: NCI-H358 (NSCLC; p53 null, pRb null); test: Cell proliferation (MTT) assay, NCI-H358; format: cell-based; settings: Homo sapiens, 48 h, read-out: IC50 cell growth inhibition, NCI-H358
Description: (§2) All 10 human cancer cell lines were maintained at 37 °C in 5% CO2 in RPMI-1640 medium, supplemented with 10% foetal calf serum and 100 μg/ml normocin. The 10 cancer cell lines used for screening were all obtained from ATCC (Manassas, VA, USA); they were the NSCLC (a form of cancer that is resistant to chemotherapy) lines: NCI-H460 (pRb^+, p53^+), A549 (pRb^+, p53^+), Calu-1 (pRb^+, p53-null), NCI-H1299 (pRb^+, p53-null), NCI-H358 (pRb-null, p53-null); the colon cancer line LS174T (pRb^+, p53^+); the prostate cancer line PC-3 (pRb^+, p53-null); the pancreatic cancer line MiaPaca (pRb^+, p53-mutant). The genotypes within brackets indicate the status of the tumour suppressor proteins pRb and p53. The mouse embryonic normal hepatic cell line (BNL CL2) and its SV40 large T-antigen-transformed counterpart cell line (BNL SV A.8) were also purchased from ATCC. The large T-antigen inactivates the tumour suppressor proteins p53 and pRb. The detailed procedure of cell proliferation (MTT) assay and IC50 determination was described previously.[32]

[3] = system: BNL SV A.8 (mouse embryonic SV40-transformed hepatic cells); test: Flow cytometric cell cycle analysis, BNL SV A.8; format: cell-based; settings: 48 h
Description: as §1

[4] = molecular target: Cdk1-cyclin B1 (Homo sapiens, UniProt P06493); test: In vitro kinase assay, Cdk1-cyclin B1 (in-house); format: biochemical; settings: three independent experiments; read-out: IC50 (mean±S.D.), Cdk1-cyclin B1
Description: (§3) The in vitro kinase assays for testing against Cdk4-cyclin D1, Cdk2-cyclin A, Cdk1-cyclin B1 and Cdk9-cyclin T1 were performed in-house. The methodology and results have been reported previously.[20], [30], [31], [32], [45] The kinase profiling for 58 representative kinases was carrried out commercially at Millipore Bioscience Division, Livingston, UK.

[5] = system: A549 cells; test: Flow cytometric cell cycle analysis, A549; format: cell-based, human; settings: 24 h
Description: as §1

[6] = system: NCI-H358 cells; test: Flow cytometric cell cycle analysis, synchronized NCI-H358; format: cell-based, human; settings: NCI-H358 after nocodazole block, released in presence of BPT, within 12 h
Description: as §1

[7] = system: NCI-H1299 (NSCLC; p53 null, pRb+); test: Cell proliferation (MTT) assay, NCI-H1299; format: cell-based; settings: Homo sapiens, 48 h, read-out: IC50 cell growth inhibition, NCI-H1299
Description: as §2

[8] = system: A549 (NSCLC; p53+, pRb+); test: Cell proliferation (MTT) assay, A549; format: cell-based; settings: Homo sapiens, 48 h, read-out: IC50 cell growth inhibition, A549
Description: as §2

[9] = system: tubulin in A549 cells; test: Tubulin polymerization/depolymerization in live cells (western blot); format: cell-based, human
Description: A549 (NSCLC) cells were seeded at a concentration of 10 000 cells per well in 1 ml complete growth medium in 24-well per 15 mm culture plates. The plates were incubated for 24 h for cell attachment and stabilization. In the first set of experiments, the cells were treated with 10 nM paclitaxel and different concentrations of BPT for 30 min (cells underwent simultaneous treatment of paclitaxel and BPT). In the second set of experiments, to study the effect of BPT on the stabilised form of tubulin, cells were pretreated with 10 nM paclitaxel for 30 min. The cell monolayer was washed two times with sterile PBS and fresh growth medium containing different concentrations of BPT were added. The plates were further incubated for 30 min, the cell monolayers were washed two times with sterile PBS at room temperature and then 100 μl tubulin extraction buffer (1 mM MgCl2, 2 mM EGTA, 0.5% NP40 and 20 mM Tris-HCl (pH 6.8)) supplemented with 2 mM phenylmethylsulfonyl fluoride, and a protease inhibitor cocktail (Sigma-Aldrich; cat. no. P8340) was added per well. After a short and vigorous vortex mixing, the cell lysates were incubated at room temperature for 5 min and then centrifuged at 16 000 r.p.m. for 10 min to separate the soluble and polymerized tubulin fractions. […]

[10] = molecular target: MAPK1 (Homo sapiens, UniProt P27361); test: Kinase profiling (Millipore), MAPK1; format: biochemical
Description: as §3

[11] = system: Calu-1 cells; test: Cell cycle analysis, Calu-1; format: cell-based, human; settings: p53-null, non-functional mitotic-spindle checkpoint
Description: as §1
Fig. S4. Cell cycle analysis of calu-1 cells upon BPT treatment. […]

Cdk1-cyclin B1, sequence (P06493 whole entry): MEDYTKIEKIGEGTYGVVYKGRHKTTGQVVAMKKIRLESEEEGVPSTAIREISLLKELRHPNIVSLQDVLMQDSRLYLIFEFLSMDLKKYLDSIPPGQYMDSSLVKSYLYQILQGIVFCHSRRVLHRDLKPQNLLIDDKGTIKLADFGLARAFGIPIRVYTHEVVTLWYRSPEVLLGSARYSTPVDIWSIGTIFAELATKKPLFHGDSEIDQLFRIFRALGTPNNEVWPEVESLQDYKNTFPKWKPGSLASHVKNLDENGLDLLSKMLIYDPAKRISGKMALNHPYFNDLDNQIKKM
Cdk1-cyclin B1, sequence (P14635 whole entry partner): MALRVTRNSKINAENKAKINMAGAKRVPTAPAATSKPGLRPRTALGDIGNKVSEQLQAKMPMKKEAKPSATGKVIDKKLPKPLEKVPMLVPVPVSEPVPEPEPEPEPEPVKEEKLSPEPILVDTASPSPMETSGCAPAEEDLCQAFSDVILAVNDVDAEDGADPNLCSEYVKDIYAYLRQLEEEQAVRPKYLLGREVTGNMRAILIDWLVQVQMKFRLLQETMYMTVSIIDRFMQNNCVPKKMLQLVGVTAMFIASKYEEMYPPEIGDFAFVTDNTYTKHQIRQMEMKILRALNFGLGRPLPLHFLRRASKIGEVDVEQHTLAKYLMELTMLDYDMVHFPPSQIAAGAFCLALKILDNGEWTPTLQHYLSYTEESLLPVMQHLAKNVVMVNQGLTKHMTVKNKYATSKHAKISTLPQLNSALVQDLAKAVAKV
MAPK1, sequence (P27361 2-379 limits assumed): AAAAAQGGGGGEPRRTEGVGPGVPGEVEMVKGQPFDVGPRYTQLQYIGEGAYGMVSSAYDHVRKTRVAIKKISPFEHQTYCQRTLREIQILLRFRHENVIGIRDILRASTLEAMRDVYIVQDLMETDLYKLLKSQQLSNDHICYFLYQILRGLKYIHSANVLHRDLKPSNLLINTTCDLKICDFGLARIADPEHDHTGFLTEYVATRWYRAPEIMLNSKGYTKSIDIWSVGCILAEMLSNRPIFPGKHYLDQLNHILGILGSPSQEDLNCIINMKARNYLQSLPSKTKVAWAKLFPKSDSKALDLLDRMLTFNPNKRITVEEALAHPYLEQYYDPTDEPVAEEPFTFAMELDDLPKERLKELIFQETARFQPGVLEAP

O=C(c1ccccc1-c1ccccc1)N1CCc2c([nH]c3ccccc23)C1 [BPT, 2-(biphenyl-2-carbonyl)-2,3,4,9-tetrahydro-1H-pyrido[3,4-b]indole]
cells detected in the sub-G1 phase [1]: < 10% | normal cells in the G2/M phase [1]: More than 50% | IC50 [2]: 680 nM | cells in Sub G1 (apoptosis) ([3]; BNL SV A.8, IC50 concentration): 43% | cells in Sub G1 (apoptosis) ([3]; BNL SV A.8, IC70 concentration): 51% | IC50 [4]: > 500000 nM | cells in G2/M ([5]; A549, IC50 concentration): 82% | cells in G0/G1 ([5]; A549, IC70 concentration): 15% | cells in G2/M ([5]; A549, IC70 concentration): 59% | cells in Sub G1 (apoptotic) ([5]; A549, IC70 concentration): 13% | G0/G1- and S-phase cells entering the G2/M phase [6]: > 50% | IC50 [7]: 900 nM | IC50 [8]: 920 nM | paclitaxel-mediated tubulin polymerization in live cells ([9]; A549, simultaneous 10 nM paclitaxel and BPT, 30 min): inhibited in a dose-dependent manner | depolymerization of paclitaxel-stabilized tubulin in live cells ([9]; A549 pretreated with 10 nM paclitaxel 30 min, then BPT 30 min): enhanced the tubulin depolymerization | IC50 [10]: > 10000 nM | phase of cell cycle block in Calu-1 cells [11]: blocks only at the G0/G1 phase
